Measurements published in patent US20050272752A1, “Complexes of E-2-Methoxy-N-(3-{4-[3-methyl-4-(6-methyl-pyridin-3-yloxy)-phenylamino]-quinazolin-6-yl}-allyl)-acetamide and methods of preparing same” (Pfizer Inc, priority 2004, published 2005).

Experiments:
[1] = tested on: transplanted human mammary carcinoma which expresses epidermal growth factor receptor tyrosine kinase (EGFR); conditions: EGFR-expressing carcinoma in athymic nude mice; cited from earlier work
[2] = tested on: another carcinoma which does not express the EGF receptor; conditions: cited from earlier work
[3] = hygroscopic stability of the sesquisuccinate complex; format: physicochemical; conditions: solid complex; relevant to weight changes during manufacture of capsules or tablets

SMILES | growth of transplanted human mammary carcinoma [1] | growth of carcinoma not expressing the EGF receptor [2] | hygroscopic stability [3]
O=CN/C=C/c1cc(O)ccc1O [erbstatin] | selectively attenuates the growth | without effect on the growth | –
COCC(=O)NC/C=C/c1ccc2ncnc(Nc3ccc(Oc4ccc(C)nc4)c(C)c3)c2c1 [sesquisuccinate complex, E-2-Methoxy-N-(3-{4-[3-methyl-4-(6-methyl-pyridin-3-yloxy)-phenylamino]-quinazolin-6-yl}-allyl)-acetamide] | – | – | substantially hygroscopically stable
